Laboratory results published in US20100217003A1, “1,2,3,4-TETRAHYDROISOQUINOLINE DERIVATIVES HAVING EFFECTS OF PREVENTING AND TREATING DEGENERATIVE AND INFLAMMATORY DISEASES” (priority 2006, published 2010).

Legend:
TNF-α mRNA = assay: Expression of TNF-α genes in LPS-stimulated BV-2 cells (RT-PCR); type: cell-based, mouse
Procedure: (§1) RT-PCR for GTPCH, iNOS, TNF-α, IL-1β and COX-2
(§2) 5 ? each of total RNA samples isolated from BV-2 cells were subjected to reverse-transcription (RT), and then polymerase chain reaction (PCR) for 30 cycles under the conditions of 94° C. for 30 seconds, 60° C. for 40 seconds and 72° C. for one minute. Primers used in the PCR were as follows: iNOS (forward, ATGTCCGAAG-CAAACATCAC; reverse, TAATGTC CAGGAAGTAGGTG), TNF-α (forward, CA-[…] reverse, CAGAGCAATGACTC-CAAAGTAGACCT), IL-1β (forward, […]; reverse, CAGGACAGGTAT AGATTCTTTCCTTT), COX-2 (forward, […]; reverse, […]), GTPCH (forward, GGATACCAGGAGACCAT CTCA; reverse, TAGCATGGTGC-TAGTGACAGT). RT-PCR for B2M was simultaneously performed as internal control. The PCR products were subjected to electrophoresis in a 1.5% agarose gel, thereby confirming the presence of a desired size of single band.
(§3) The assay was performed to determine whether EHMTIQ (11a) affects TNF-α production in an activated microglial cell. LPS-stimulated BV-2 cell samples were treated with various concentrations of EHMTIQ (11a) and the expression of TNF-α genes was estimated by RT-PCR. The results are illustrated in FIG. 3.

IL-1β mRNA = assay: Expression of IL-1β genes in LPS-stimulated BV-2 cells (RT-PCR); type: cell-based, mouse
Procedure: as §1, §2
as §3, with “to investigate” for “to determine”, “affects IL-β” for “affects TNF-α”, “cell smaples” for “cell samples”, “of IL-1β” for “of TNF-α”, “FIG. 4.” for “FIG. 3.”

COX-2 mRNA = assay: Expression of COX-2 genes in LPS-stimulated BV-2 cells (RT-PCR); type: cell-based, mouse
Procedure: as §1, §2
The gene expression of cyclooxigenase-2 (COX-2) stimulating a prostaglandin synthesis causing oxidative stress to neurons increased by the activation of a microglial cell. LPS-stimulated BV-2 cell samples were treated with various concentrations of EHMTIQ (11a), and the expression of COX-2 genes was estimated by RT-PCR. The results are illustrated in FIG. 5.

NF-kB p65 = NF-kB p65 shift to nucleus in LPS-treated cells (Western blot); type: cell-based, mouse; details: 10 (unit as image)
Procedure: Assay for NF-kB p65 Shift to Nucleus
The cells were washed with cold phosphate buffered saline (PBS) and gently suspended in 400 ? buffer solution containing 10 mM HEPES (pH 7.9), 10 mM KCl, 0.1 mM EDTA, 0.1 mM EGTA, 1 mM DTT and 0.5 mM PMSF. The cell suspension was placed on ice for 15 minutes, and reacted with 25 ? NP-40 (0.5%) for 10 seconds. Cen-trifugation for 30 seconds yielded nuclear pellets, which were then resuspended in 50 ? of cold PBS containing 20 mM HEPES (pH 7.9), 400 mM NaCl, and 1 mM each of DTT, EDTA, EGTA and PMSF. The suspension was vortexted for 15 minutes. The nuclear extract was centrifuged at 11,000×g for 15 minutes to get supernatant solution, whose protein content was measured. Equal amounts of the cell extract (5 ? ) were subjected to electrophoresis in a 10% SDS-polyacrylamide gel and then transferred onto a polyvinylidene difluoride-nitrocellulose membrane. The membrane was blocked with TBST containing 8% skim milk at RT for one hour, incubated with primary antibody, anti-NF-kB p65 antibody (1:500 dilution), at 4° C. overnight, and further incubated with secondary antibody conjugated with horseradish peroxidase for one more hour. Protein bands were detected by a chemiluminescence detection method according to the manufacturer's indication.
A transcription factor, NF-kB, shifts into a nucleus to regulate expression of several inflammatory genes. […]

[1] = Free-radical scavenging activity (DPPH); details: various concentrations
Procedure: Measurement of Free-Radical Scavenging Activity
Antioxidant activity was evaluated based on scavenging activity of 2,2-diphenyl-1-picrylhydrazyl (DPPH) radical. DPPH was dissolved in 80% methanol to make a final concentration of 100 ? . 8 ? of EHMTIQ (11a) dissolved in dimethyl sulfoxide reacted with 232 ? of DPPH radical solution. The reaction mixture was incubated for 25 minutes at RT, and then the absorbance of DPPH was measured at 517 nm using a SpectraMax GEMINI XS fluorescence spectrophotometer (Molecular Devices, Sunnyvale, Calif., USA).
Free radicals produced by an activated microglial cell cause oxidative stress and structural transformation in protein, nucleic acid and lipids of a neuron, which lead to cell injury. Accordingly, the assay was performed to determine whether EHMTIQ (11a) has free radical scavenging activity.

SK-N-BE(2)C cells = assay: Protective effect against neuron death due to substances released from activated microglial cells (LDH); type: cell-based; details: culture medium from 50 EHMTIQ + LPS-treated BV-2 cells
Procedure: Measurement of Lactate Dehydrogenase (LDH) Activity
0.26 mM NADH, 2.87 mM sodium pyruvate and 100 mM potassium phosphate buffer (pH 7.4) were added to cell culture medium (50 ? ) to make a total volume of 200 ? , and then cultured at RT. The resultant NAD^+ was measured at 340 nm for 5 minutes at 2-second intervals using a microplate spectrophotometer (SPECTRA MAX 340 pc; Molecular Devices, Menlo Park, Calif., USA).
BV-2 microglial cells were planted in a 24-well Petri dish at a density of 2.5×10^5 cells/ml. After an overnight culture, the cells were treated with […] lipopolysaccharide and EHMTIQ (11a) and then cultured for 12 more hours. At the same time, SK-N-BE(2)C cells were planted in a 24-well Petri dish at 0.5×10^5 cells/ml and cultured for 24 hours. The culture medium for SK-N-BE(2) C cells was removed and the culture medium for BV-2 was added thereto. After 24 hours, the death rate of SK-N-BE(2)C cells was measured using LDH.
The assay was performed to determine whether EHMTIQ (11a) protects a dopaminergic cell from injuries due to inflammatory substances released from an activated microglial cell. SK-N-BE(2)C cells were transferred to a culture medium containing substances released from LPS-stimulated BV-2 cells, and the cell death rate was measured by activity of LDH contained in the culture medium and compared with that in the EHMTIQ (11a)-treated BV-2 culture medium.

In the case of CCC(=O)N1CCc2cc(OC)c(O)cc2C1 [EHMTIQ (11a), 2-ethylcarbonyl-7-hydroxy-6-methoxy-1,2,3,4-tetrahydroisoquinoline], the “mRNA level of TNF-α” value (TNF-α mRNA; 2.5 (unit as image)) is reported as “decreased the mRNA level to a statistically significant level”, the “mRNA level of TNF-α compared to the control only treated with LPS” value (TNF-α mRNA; 5 (unit as image)) is reported as 74±1% and the “mRNA level of TNF-α compared to the control only treated with LPS” value (TNF-α mRNA; 100 (unit as image)) is reported as 36±1%. The “mRNA level of IL-1β” value (IL-1β mRNA; 2.5 (unit as image)) was 74±0.7%, the “mRNA level of IL-1β” value (IL-1β mRNA; 100 (unit as image)) was “significant decrease in the LPS effect” and the COX-2 expression (COX-2 mRNA; 2.5 (unit as image)) was 62±3%. For the same compound, the COX-2 expression (COX-2 mRNA; 5 (unit as image)) was 75±3%, the COX-2 expression (COX-2 mRNA; 10 (unit as image)) was 83±2% and the “NF-kB p65 in nuclear fraction” value (NF-kB p65) was “completely inhibited”. For the same compound, the “scavenging activity of DPPH radicals” value [1] was “proportional to the concentration” and the “cell injury rate of SK-N-BE(2)C cells” value (SK-N-BE(2)C cells) was “reduced”.
